Experiment [1] addresses T1, STK10 (Homo sapiens, UniProt O94804).
T1 construct: purchased in-house DSF kinase panel (SGC-style construct names; the trailing letter is the construct ID)
The note with it: Figure 1; reference not given; read-out: STK10 in vitro IC50; cited from earlier work.

For a further experiment, the system named is TIE2. The note with it: Figure 1; reference not given; read-out: TIE2 in vitro IC50; cited from earlier work.
Another experiment has as its system BRK. The note with it: Figure 1; reference not given; read-out: BRK in vitro IC50; cited from earlier work.
Experiment [2] has as its target T1, STK10. The experiment can be described thus: DSF Tm panel. Format: binding. As to conditions: 10 μM compound.
In experiment [3] the target is T1, STK10. The experiment can be described thus: PhosphoSens in vitro activity assay. Format: biochemical. As to conditions: ATP 160 μM.
The target of experiment [4] is T2, SLK (Homo sapiens, UniProt Q9H2G2). Kind of experiment: PhosphoSens in vitro activity assay. Format: biochemical. As to conditions: ATP 150 μM.
Experiment [5] deals with T2, SLK. Kind of experiment: DSF Tm panel. Format: binding. Set-up: purchased in-house DSF kinase panel (SGC-style construct names; the trailing letter is the construct ID). As to conditions: 10 μM compound.
Experiment [6] concerns the target T2, SLK. The experiment can be described thus: NanoBRET target engagement assay. The note with it: HEK293T cells. On the set-up: has a greater impact on the full-length protein than on the kinase domains; host or cells: HEK293T (ATCC CRL-3216). Format: cell-based.

Like-named read-outs stand apart in the source and are kept apart here.

T1 sequence (O94804 18-317 limits assumed): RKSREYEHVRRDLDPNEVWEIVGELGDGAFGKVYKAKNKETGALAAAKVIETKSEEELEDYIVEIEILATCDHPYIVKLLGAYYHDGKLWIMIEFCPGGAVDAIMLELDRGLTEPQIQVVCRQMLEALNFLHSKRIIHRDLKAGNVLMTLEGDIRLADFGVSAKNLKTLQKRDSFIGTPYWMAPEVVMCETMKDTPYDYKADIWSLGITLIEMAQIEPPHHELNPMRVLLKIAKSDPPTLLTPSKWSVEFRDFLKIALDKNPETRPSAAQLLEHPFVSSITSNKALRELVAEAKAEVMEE

Take `COc1ccc2cc(-c3c(-c4ccncc4)nc(-c4ccc(S(C)(=O)=O)cc4C)n3C)ccc2c1` [SB-633825 (3), SB-633825]: the values for the IC50 at STK10 [1], with TIE2 and with BRK were 66 nM, 3.5 nM and 150 nM, respectively.
As to `Cc1cc(F)ccc1CNC(=O)Nc1ccc2cc1OCCOCCNc1ccn3ncc-2c3n1` [compound 22], the values for the ΔTm at 10 µM at STK10 [2] and at SLK [5] were 8.3 °C and 3.7 °C, respectively. Besides, the IC50 against STK10 [3] was found to be 3160 ± 670 nM; against SLK [4] it was 3130 ± 930 nM. This compound had an EC50 at SLK [6] of over 50000 nM.
For the compound `Cc1cc(C(F)(F)F)ccc1CNC(=O)Nc1ccc2cc1OCCOCCNc1ccn3ncc-2c3n1` [compound 25], the ΔTm at 10 µM stood at 9 °C on STK10 [2] and 3.8 °C at SLK [5]. Besides, the figures for the IC50 at STK10 [3] and against SLK [4] were 1070 ± 110 nM and 2690 ± 510 nM, respectively. This compound had an EC50 at SLK [6] of over 50000 nM.

These data come from article PMC12621043, “Un-LOK-ing a New Approach for Conformational Selective Targeting of STK10 (LOK)” (ACS Medicinal Chemistry Letters, 2025).
